Experimental findings from patent US9580498B2, “Monoclonal antibody for antagonizing and inhibiting binding of vascular endothelial growth factor to its receptor, and coding sequence” (SUZHOU STAINWEI BIOTECH INC., priority 2012, dated 2017) are described below.

Assay type in all cases: in vivo
The subject of experiment [1] is human MDA-MB-231 breast cancer. Nature of the experiment: Transplanted human MDA-MB-231 breast cancer in nude mice. As to conditions: 5 mg/kg i.p. twice a week for 5 weeks; day 36. The source says:
The tumor model establishment is basically the same as that in Example 10.
Nude mice were inoculated with human MDA-MB-231 breast cancer. When the tumor volume reached about 50-100 mm^3, a screening was done and those mice bearing tumors too small or too large in size were excluded. The selected mice were then randomly divided into different groups for different doses of drugs
The above nude mice inoculated with human MDA-MB-231 breast cancer were divided into the following five treatment groups (7 mice/group). Antibodies were injected intraperitoneally twice a week for 5 weeks, and ending the test on the 36th day (D36).
(§1) At the end of experiment, tumors were removed after euthanasia, and the tumor weight were measured. The treatment effect was measured by the ratio of tumor size in the testing group (T) versus the control group (C), i.e. T/C %.
(§2) After the first administration, the long and short diameters of the tumor were measured twice a week, and the tumor volume (V) and the relative tumor volume RTV thereof (Vt/VO) were calculated.
At day 36, each animal was euthanized, and its tumor was removed and weighted and the average tumor weight in each group was calculated.

Experiment [2] relates to human Ls-174-T colon cancer. Put plainly: Transplanted human Ls-174-T colon cancer in nude mice. Particulars: 5 mg/kg i.p. twice a week for 4 weeks; day 29. On the procedure:
Two nude mice were prepared to serve as tumor bearing mice. 1×10^7 of human Ls-174-T colon cancer cells (purchased from Cell Preservation Center of Shanghai Institutes for Biological Sciences, Chinese Academy of Sciences) at the log-growth cycle, or tumor mass in a size of about 1.5 mm^3, were inoculated subcutaneously into the right armpit of these two nude mice. […]
as §1
After the first administration, both the long and short diameters of tumors were recorded twice a week, and tumor volume (V) and the relative tumor volume (RTV) were calculated. The calculation formula for RTV is: RTV=Vt/Vo, where Vt is the tumor volume measured at each time point (day), and Vo is the initial (before administration) tumor volume.
At day 29, each animal was euthanized, and its tumor was removed and weighted and the average tumor weight in each group was calculated.

Experiment [3] relates to human A673 rhabdomyosarcoma. Nature of the experiment: Transplanted human A673 rhabdomyosarcoma in nude mice. Particulars: 5 mg/kg i.p. twice a week for 3 weeks; day 22.
Excerpt: The establishment of this tumor method is basically the same as that in Example 10.
Nude mice were inoculated with human A673 rhabdomyosarcoma. When the tumor volume reached about 50-100 mm^3, a screening was done and those mice bearing tumors too small or too large in size were excluded. The selected mice were then randomly divided into different groups for different doses of drugs
Dividing the above nude mice inoculated with the human A673 rhabdomyosarcoma into the following six groups (6 mice/group) for administration, intraperitoneally injecting twice a week successively for 3 weeks, and ending the test on the 22nd day (D22).
as §1, §2
At day 22, each animal was euthanized, and its tumor was removed and weighted and the average tumor weight in each group was calculated.

Experiment [4] has as its system human HCT-8 colon cancer. Put plainly: Transplanted human HCT-8 colon cancer in nude mice. As to conditions: 5 mg/kg i.p. twice a week for 4 weeks; day 30.
Excerpt: The establishing method is basically the same as that in Example 10.
Observing the tumor growth of the nude mice inoculated with the human HCT-8 colon cancer and, when the tumor volume is about 50-100 mm^3, screening according to the size of the tumor volume, with the too large tumor and minor tumor not selected.
The above nude mice inoculated with human HCT-8 colon cancer were divided into the following seven groups (8 mice/group) for administration, intraperitoneally injecting twice a week successively for 4 weeks, and ending the test on the 30th day (D30).
as §1
After the first treatment, the long and short diameters of the tumor were measured twice a week, and the tumor volume V and the relative tumor volume RTV thereof (Vt/VO) were calculated
At day 30, each animal was euthanized, and its tumor was removed and weighted and the average tumor weight in each group was calculated.

On to “Avastin: humanized anti-VEGF monoclonal antibody drug developed and produced by Roche/Genentech [reference compound]”, for which the average tumor weight stood at 0.543 g in experiment [1], 0.767 g in experiment [2] and 3.323 g in experiment [3]. Besides, the “tumor weight inhibition rate” value in experiment [1] is 38.99%; in experiment [2], 74.05%; in experiment [3] it was 61.92%.

On to `N.N.[Cl][Pt][Cl]` [cisplatin, reference compound], for which, in experiment [4], the average tumor weight stood at 1.201 g and the “tumor weight inhibition rate” value was found to be 25.29%.
